From ChEMBL document CHEMBL1146646, “Benzimidazoles as new potent and selective DP antagonists for the treatment of allergic rhinitis” (Bioorg Med Chem Lett, 2004)

What was measured:
[1] = target: T1, Prostaglandin D2 receptor (Homo sapiens, UniProt Q13258); assay: Binding affinity against human recombinant […] D2 was determined using radioligand competition binding assay
T1 sequence (Q13258 whole entry): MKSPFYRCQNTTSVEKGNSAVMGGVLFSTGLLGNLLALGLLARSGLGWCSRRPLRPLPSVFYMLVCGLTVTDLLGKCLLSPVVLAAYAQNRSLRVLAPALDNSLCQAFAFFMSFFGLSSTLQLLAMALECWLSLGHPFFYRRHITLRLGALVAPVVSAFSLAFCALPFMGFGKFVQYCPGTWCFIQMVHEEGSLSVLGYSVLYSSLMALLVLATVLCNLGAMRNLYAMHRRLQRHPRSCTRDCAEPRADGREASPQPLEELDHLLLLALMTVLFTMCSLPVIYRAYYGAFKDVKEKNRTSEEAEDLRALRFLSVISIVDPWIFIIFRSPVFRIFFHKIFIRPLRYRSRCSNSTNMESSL

[2] = target: T2, Thromboxane A2 receptor (Homo sapiens, UniProt P21731); assay: Binding affinity against human recombinant Thromboxane A2 receptor was determined using radioligand competition binding assay
T2 sequence (P21731 whole entry): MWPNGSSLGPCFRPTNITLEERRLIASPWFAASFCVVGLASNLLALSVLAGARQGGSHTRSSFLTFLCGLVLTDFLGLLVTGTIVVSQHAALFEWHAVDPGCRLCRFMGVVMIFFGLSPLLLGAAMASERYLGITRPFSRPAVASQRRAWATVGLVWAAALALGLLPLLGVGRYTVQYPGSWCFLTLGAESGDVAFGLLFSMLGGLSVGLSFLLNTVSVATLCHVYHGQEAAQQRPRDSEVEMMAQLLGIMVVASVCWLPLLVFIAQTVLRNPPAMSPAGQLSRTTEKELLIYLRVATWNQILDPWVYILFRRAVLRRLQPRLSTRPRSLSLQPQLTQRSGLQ

[3] = target: T1, Prostaglandin D2 receptor; assay: Binding affinity against human recombinant […] D2 in presence of 0.5% human serum albumin

SMILES	Ki [1]	Ki [2]	Ki [3]
CCOC(=O)c1cc(CSc2nc3ccccc3n2Cc2ccc(Cl)cc2)cc(C(=O)OCC)c1	> 43 µM	> 71 µM	–
CSc1ccc(CSc2nc3ccccc3n2Cc2ccc(Cl)cc2)cc1	0.55 µM	> 73 µM	–
COC(=O)c1cccc(CSc2nc3ccccc3n2Cc2ccc(Cl)cc2)c1	1.1 µM	9.3 µM	–
CC(C)(O)c1ccc(CSc2nc3ccccc3n2Cc2ccc(Cl)cc2)cc1	0.14 µM	11.9 µM	–
COC(=O)c1ccc(C[S+]([O-])c2nc3ccccc3n2Cc2ccc(Cl)cc2)cc1 (configuration not stated)	0.55 µM	3.1 µM	1.5 µM
COC(=O)c1ccc(-c2nc3ccccc3n2Cc2ccc(Cl)cc2)cc1	8 µM	7 µM	0.8 µM
COC(=O)c1ccc(CCc2nc3ccccc3n2Cc2ccc(Cl)cc2)cc1	0.024 µM	2.2 µM	0.137 µM
NS(=O)(=O)c1ccc(CSc2nc3ccccc3n2Cc2ccc(Cl)cc2)cc1	1.2 µM	> 70 µM	–
COC(=O)c1ccc(CNc2nc3ccccc3n2Cc2ccc(Cl)cc2)cc1	1.1 µM	6 µM	–
CC(O)c1ccc(CSc2nc3ccccc3n2Cc2ccc(Cl)cc2)cc1 (configuration not stated)	0.27 µM	1.5 µM	–
Fc1ccc(CSc2nc3ccccc3n2Cc2ccc(Cl)cc2)cc1	> 42 µM	6.1 µM	–
CC(=O)c1ccc(CSc2nc3ccccc3n2Cc2ccc(Cl)cc2)cc1	0.3 µM	3.8 µM	–
Cc1nc(-c2ccc(CSc3nc4ccccc4n3Cc3ccc(Cl)cc3)cc2)no1	0.096 µM	> 74 µM	–
COC(=O)Cc1ccc(CSc2nc3ccccc3n2Cc2ccc(Cl)cc2)cc1	0.33 µM	1.5 µM	–
O=C(O)c1ccc(CSc2nc3ccccc3n2Cc2ccc(Cl)cc2)cc1	3.5 µM	4.7 µM	–
CN(C)C(=O)c1ccc(CSc2nc3ccccc3n2Cc2ccc(Cl)cc2)cc1	0.8 µM	2 µM	–
COC(=O)c1ccc(Nc2nc3ccccc3n2Cc2ccc(Cl)cc2)cc1	1.5 µM	0.9 µM	5.4 µM
FC(F)(F)c1ccc(CSc2nc3ccccc3n2Cc2ccc(Cl)cc2)cc1	2.6 µM	> 73 µM	–
Clc1ccc(Cn2c(SCc3ccccc3)nc3ccccc32)cc1	6.7 µM	4.2 µM	–
N#Cc1ccc(CSc2nc3ccccc3n2Cc2ccc(Cl)cc2)cc1	4.2 µM	0.95 µM	–
COC(=O)c1ccc(/C=C/c2nc3ccccc3n2Cc2ccc(Cl)cc2)cc1	0.038 µM	> 75 µM	0.067 µM
Cc1noc(-c2ccc(CSc3nc4ccccc4n3Cc3ccc(Cl)cc3)cc2)n1	0.31 µM	> 74 µM	–
COC(=O)c1ccc(Cc2nc3ccccc3n2Cc2ccc(Cl)cc2)cc1	6.2 µM	4 µM	> 12 µM
CS(=O)(=O)c1ccc(CSc2nc3ccccc3n2Cc2ccc(Cl)cc2)cc1	1.1 µM	2 µM	–
COC(=O)c1ccc(CSc2nc3ccccc3n2Cc2ccc(Cl)cc2)cc1	0.073 µM	9.1 µM	0.297 µM
